Seven compounds from ChEMBL document CHEMBL1201862, “PubChem BioAssay data set” (2004) can be followed below.

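Briefly, cells in 96-well plates were exposed to five compound concentrations for 48 h, and endpoints were estimated by linear interpolation. Abbreviation: GI50, concentration required for 50% inhibition of growth.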 Activity calls are given as the source filed them. No stated cut-off is given here; in the data, active = GI50 up to about 1.1 µM and inactive = higher.

Among the test systems are 786-0; A498; ACHN; CAKI-1; DU-145; EKVX; HCT-116; K562; M14; NCI-H226; OVCAR-3; OVCAR-5; PC-3; SF-539; SK-MEL-28; SN12C; T47D; UACC-257; UO-31; BT-549.
What all share (assay): NCI anticancer screen, dose series, 48 h

On to `C=C1CCCCCCCCC/C=C/1SCCCSC`, for which the GI50 in the test with 786-0, in the test on A498, with ACHN, with CAKI-1, with DU-145 and in the test with EKVX was > 100 µM (inactive) each time. Besides, the GI50 with HCT-116, with K562, in the test with M14, in the test on NCI-H226, with OVCAR-3 and in the test with OVCAR-5 was > 100 µM (inactive) in each case. The GI50 in the test on PC-3, in the test with SF-539, in the test on SK-MEL-28, with SN12C, in the test on T47D and with UACC-257 was > 100 µM (inactive) in each case. Further, in the test on UO-31, the GI50 is > 100 µM (inactive).

Regarding `CCC(C)C(=O)O[C@H]1C(=O)O[C@@H]2C[C@H]3C(C)=CC(=O)[C@@H](O)[C@]3(C)[C@H]3[C@@H](O)[C@H](O)[C@@]4(C)OC[C@]32[C@@H]14` (stereo partly drawn), the GI50 in the test with 786-0 is < 0.0194 µM (active); in the test with A498, < 0.01 µM (active); with ACHN, < 0.0156 µM (active); in the test with CAKI-1, < 0.0455 µM (active); with DU-145, < 0.01 µM (active); in the test on EKVX, 0.121 µM (active). Further, the GI50 with HCT-116 is < 0.01 µM (active); in the test with K562, 0.0109 µM (active); in the test on M14, < 0.0144 µM (active); in the test on NCI-H226, < 0.0157 µM (active); in the test with OVCAR-3, 0.0169 µM (active); in the test with OVCAR-5 it was < 0.0244 µM (active). For the same compound, the GI50 in the test on PC-3 was < 0.01 µM (active); in the test on SF-539, < 0.0176 µM (active); in the test on SK-MEL-28 it was < 0.01 µM (active); in the test with SN12C, < 0.01 µM (active); in the test on T47D, < 0.01 µM (active); in the test on UACC-257 it was < 0.01 µM (active). In the test on UO-31, the GI50 is < 0.0217 µM (active).

Regarding `CCn1c(=N)sc2nc3ccccc3n2c1=O`, the GI50 in the test on 786-0, in the test with A498, in the test with ACHN, with CAKI-1, in the test on DU-145 and with EKVX was > 100 µM (inactive) each time. For the same compound, the GI50 in the test with HCT-116, with K562, in the test on M14, in the test on NCI-H226, in the test with OVCAR-3 and in the test on OVCAR-5 was > 100 µM (inactive) each time. In addition, the GI50 with PC-3, with SF-539, in the test on SK-MEL-28, in the test on SN12C, in the test with T47D and in the test with UACC-257 was > 100 µM (inactive) each time. In addition, the GI50 in the test with UO-31 was 14.9 µM (inactive).

With `O=C(NC(=O)c1ccccc1[N+](=O)[O-])Nc1ccc(Oc2ncc(Cl)cn2)c(C(F)(F)F)c1`, the GI50 with 786-0 is < 0.01 µM (active); with A498 it was < 0.01 µM (active); with ACHN it was 0.0789 µM (active); with CAKI-1, < 0.01 µM (active); in the test with DU-145 it was 0.0366 µM (active); with EKVX, 0.126 µM (active). Moreover, the GI50 in the test with HCT-116 was 0.0124 µM (active); in the test with K562, < 0.0336 µM (active); with M14, < 0.0115 µM (active); in the test with NCI-H226, 0.0191 µM (active); in the test on OVCAR-3 it was < 0.01 µM (active); in the test with OVCAR-5 it was 0.0119 µM (active). The GI50 in the test on PC-3 was < 0.01 µM (active); in the test with SF-539 it was 0.0109 µM (active); with SK-MEL-28 it was < 0.0104 µM (active); in the test with SN12C it was 0.0873 µM (active); with T47D it was 22.1 µM (inactive); with UACC-257 it was < 0.01 µM (active). Further, the GI50 in the test on UO-31 was 0.0281 µM (active).

As for `CCCCCCCCCCCCOP(=O)(O)OP(=O)(O)OCC1OC(n2cc(C)c(=O)[nH]c2=O)CC1O` (stereo not drawn), the GI50 with 786-0, in the test with A498, in the test with ACHN, with BT-549, in the test with CAKI-1 and with EKVX was > 100 µM (inactive) throughout. Moreover, the GI50 with HCT-116, in the test on K562, in the test on M14, with NCI-H226, with OVCAR-3 and with OVCAR-5 was > 100 µM (inactive) throughout. For the same compound, the GI50 with PC-3, in the test with SF-539, in the test with SK-MEL-28, in the test on SN12C, in the test on T47D and in the test with UACC-257 was > 100 µM (inactive) throughout. In addition, in the test on UO-31, the GI50 is > 100 µM (inactive).

For `COc1cc(OC)c(-c2ccc(OCc3ccccc3)c3c(OC)cc(C)cc23)c2c1C(C)=N[C@H](C)C2`, the GI50 with 786-0 is 2.1 µM (inactive); with A498 it was 2.16 µM (inactive); in the test with ACHN it was 2.25 µM (inactive); with BT-549 it was 3.31 µM (inactive); in the test with CAKI-1, > 12.5 µM (inactive); with DU-145, 2.38 µM (inactive). For the same compound, the GI50 in the test with EKVX is 2.4 µM (inactive); in the test with HCT-116, 2.23 µM (inactive); with K562, 1.55 µM (inactive); with M14 it was 2.03 µM (inactive); in the test on NCI-H226, 2.64 µM (inactive); in the test with OVCAR-3, 2.25 µM (inactive). Moreover, the GI50 was 2.52 µM (inactive) with OVCAR-5; 2.1 µM (inactive) in the test with PC-3; 2.38 µM (inactive) in the test with SF-539; 2.36 µM (inactive) in the test on SK-MEL-28; 2.04 µM (inactive) with SN12C; 2.17 µM (inactive) in the test on UACC-257. Also, in the test with UO-31, the GI50 was 1.14 µM (inactive).

`O=[N+]([O-])c1cc(-c2nnc(C34CC5CC(CC(C5)C3)C4)o2)cc([N+](=O)[O-])c1`: the GI50 with 786-0 was 34.2 µM (inactive); in the test with A498, 61.7 µM (inactive); in the test with ACHN it was 58.6 µM (inactive); in the test with CAKI-1, > 100 µM (inactive); in the test with DU-145, 33 µM (inactive); in the test with EKVX, > 100 µM (inactive). The GI50 is 12.3 µM (inactive) with HCT-116; 21 µM (inactive) with K562; 21.5 µM (inactive) with M14; 83.4 µM (inactive) with NCI-H226; 63.5 µM (inactive) in the test on OVCAR-3; > 100 µM (inactive) in the test on OVCAR-5. Further, the GI50 in the test on PC-3 is 45.2 µM (inactive); in the test with SF-539 it was > 100 µM (inactive); with SK-MEL-28 it was 86.1 µM (inactive); with SN12C, 90.8 µM (inactive); in the test on T47D, > 100 µM (inactive); in the test on UACC-257, 83.4 µM (inactive). Also, the GI50 in the test on UO-31 was > 100 µM (inactive).
